Reference: US20100233746A1, “Inflammation and Oxidative Stress Level Assay” (priority 2007, published 2010)

System: rats
Assay: nephrotoxicity model: eicosanoids in plasma of rats receiving puromycin, LC-MS/MS
Format: in vivo
Settings: 4 groups receiving different dosages of puromycin, FIG. 4
Method: To determine free fatty acid metabolites in various biological materials, a small amount of sample (20 μL) was applied onto a filter spot containing stable isotopes for the various metabolites in a microtiter plate and extracted in aqueous methanol without further derivatization as described in FIG. 1. Separation of metabolites was done on a RP-HPLC (Zorbax Eclipse C18, 3.0×100 mm, 3.5 μm) column after injection of 20 μL extract using an Agilent 1100 system (Agilent Technologies) with an HTC PAL autosampler (CTC Analytics). Mobile phase compositions were A: H2O with 0.05% (v/v) formic acid and B: acetonitrile with 0.05% (v/v) formic acid. Flow rate was constant at 500 μL/min, metabolites were separated by gradient elution. Detection was done by MRM transitions in negative detection mode using an API4000Qtrap® equipped with an ESI source (Applied Biosystems). Quantification of metabolites was performed with Analyst v.1.4.2 quantitation.
Test cases of disease states show an increase of free fatty acids, prostaglandins and hydroxylated species in conjunction with pulmonary inflammations, prostate cancer and cardiovascular disease. […]
Plasma samples obtained from 4 groups of rats receiving different dosages of puromycin were analyzed.
FIGS. 4a, 4b, 4c and 4d. […] The concentrations of 4 different eicosanoids (as indicated) in rat plasma samples have been determined and normalized.

Compound: COc1ccc(C[C@H](N)C(=O)N[C@H]2[C@@H](O)[C@H](n3cnc4c(N(C)C)ncnc43)O[C@@H]2CO)cc1 [puromycin]
- cyclooxygenase and lipoxygenase activity (concentrations of 4 different eicosanoids in rat plasma, normalized): Increased cyclooxygenase and lipoxygenase activity
